# Experimental data as given in US10501492B2, “Antibiotic compounds” (priority 2009, dated 2019).
# Columns and labels:
# [1] = tested on: S. aureus; experiment: MIC determination, Macro-broth dilution method (NCCLS); format: cell-based, Staphylococcus aureus
# Source text: (§1) The in-vitro potency was established by minimum inhibitory concentration (MIC) determinations of the compounds of Formula I(a) and Formula I(b) against bacterial strains, by using the Macro-broth dilution method as per National Committee for Clinical Laboratory Standards (2000) guidelines (Methods for Dilution Antimicrobial Susceptibility Tests for Bacteria that Grow Aerobically—Fifth Edition: Approved Standard M7-A5. NCCLS, Wayne, Pa., USA). Mueller-Hinton broth was used as nutrient medium for the assay, unless stated otherwise. PM181104 (PCT publication no. WO2007119201) was used as known standard in all in-vitro experiments. For preparation of the stock solution the compounds of Formula I(a) and Formula I(b) were dissolved in chloroform (5% of the total required volume) and diluted using methanol (95% of the total required volume).
# [2] = tested on: S. epidermidis; experiment: as above; format: cell-based, Staphylococcus epidermidis
# Source text: as §1
# [3] = tested on: E. faecium; experiment: as above; format: cell-based, Enterococcus faecium; conditions: for Minimal Inhibitory Concentration: E. faecium, R-2 (VRE) (Table 5)
# Source text: as §1
# [4] = tested on: Bacillus cereus (121); experiment: as above; format: cell-based
# Source text: as §1
# [5] = tested on: Bacillus megaterium FH1127 (124); experiment: as above; format: cell-based
# Source text: as §1
# [6] = tested on: Bacillus subtilis ATCC 6633 (123); experiment: as above; format: cell-based
# Source text: as §1
# [7] = tested on: M. tuberculosis H37Rv; experiment: Antimycobacterial activity, Luciferase reporter phage assay; format: cell-based, Mycobacterium tuberculosis; conditions: 72 hours
# [8] = Solubility (physical properties)
# [9] = S. aureus 209P (MSSA) (Table 5)
# [10] = S. aureus E710, (MRSA) (Table 5)
# [11] = in chloroform, ethyl acetate, methanol
smiles,measurement,setting,value
C=C(NC(=O)C(=C)NC(=O)c1csc(C2=NC3c4csc(n4)C4NC(=O)c5csc(n5)C(C(C)(O)C(C)O)NC(=O)C5CSC(=N5)/C(=C\C)NC(=O)C(C(C)O)NC(=O)c5csc(n5)C3(CC2)NC(=O)C(C)NC(=O)C(=C)NC(=O)C(C)NC(=O)C(C(C)C)NC2C=Cc3c(C(C)O)cc(nc3C2O)C(=O)OC4C)n1)C(N)=O (stereo not shown) [Compound of Formula I(a)],Minimal Inhibitory Concentration,[1]; [9],0.064 to 0.125 µg/mL
same,MIC,"[1]; S. aureus 209 P, MSSA (Table 4)",0.063 µg/mL
same,MIC,"[1]; S. aureus 503, MRSA, 62",>1 µg/mL
same,MIC,"[1]; S. aureus 789, MRSA, 64",>1 µg/mL
same,MIC,"[1]; S. aureus ATCC 33591, MRSA",0.125 µg/mL
same,MIC,[1]; S. aureus C1 MRSA 2,0.25 µg/mL
same,MIC,[1]; S. aureus C1 MRSA 3,0.25 µg/mL
same,MIC,[1]; S. aureus C1 MRSA 5,0.25 µg/mL
same,MIC,[1]; S. aureus C1 MRSA 7,0.125 µg/mL
same,MIC,[1]; S. aureus C1 MRSA 8,0.25 µg/mL
same,MIC,[1]; S. aureus C1 MRSA 9,0.25 µg/mL
same,MIC,[1]; S. aureus C1 MRSA 10,0.25 µg/mL
same,MIC,[1]; S. aureus C1 MRSA 13,0.25 µg/mL
same,MIC,[1]; S. aureus C1 MRSA 16,0.25 µg/mL
same,MIC,[1]; S. aureus C1 MRSA 17,0.125 µg/mL
same,MIC,[1]; S. aureus C1 MRSA 20,0.125 µg/mL
same,MIC,[1]; S. aureus C1 MRSA 21,0.125 µg/mL
same,MIC,[1]; S. aureus C1 MRSA 22,0.25 µg/mL
same,MIC,[1]; S. aureus C1 MRSA 23,0.016 µg/mL
same,MIC,[1]; S. aureus C1 MRSA 24,0.25 µg/mL
same,MIC,[1]; S. aureus C1 MRSA 25,0.15 µg/mL
same,Minimal Inhibitory Concentration,[1]; [10],0.125 µg/mL
same,MIC,"[1]; S. aureus E710, MRSA (Table 4)",0.125 µg/mL
same,MIC,"[1]; S. aureus E712, MRSA Erythro^R, 59",0.25 µg/mL
same,MIC,[1]; S. aureus KEM MRSA 1,0.25 µg/mL
same,MIC,[1]; S. aureus KEM MRSA 2,0.25 µg/mL
same,MIC,[1]; S. aureus KEM MRSA 3,0.25 µg/mL
same,MIC,[1]; S. aureus KEM MRSA 4,0.125 µg/mL
same,MIC,[1]; S. aureus KEM MRSA 5,0.125 µg/mL
same,MIC,[1]; S. aureus MRSA 3 lilavati,0.125 µg/mL
same,MIC,[1]; S. aureus Misk MRSA 35,0.125 µg/mL
same,MIC,[1]; S. aureus Misk MRSA 37,0.125 µg/mL
same,MIC,[1]; S. aureus Misk MRSA 38,0.125 µg/mL
same,MIC,"[1]; S. aureus SG 511, MRSA, 63",1 µg/mL
same,MIC,"[2]; S. epidermidis 823, Teicho^R, 230",0.25 µg/mL
same,MIC,"[2]; S. epidermidis 2361 W, 246",0.25 µg/mL
same,MIC,"[2]; S. epidermidis 4264 I (1) W, 247",0.125 µg/mL
same,MIC,"[2]; S. epidermidis 6098, Erythro^R, 233",>1 µg/mL
same,MIC,"[2]; S. epidermidis 6729 II W, Erythro^R, 236",0.125 µg/mL
same,MIC,"[2]; S. epidermidis Pat 01 IV, 251",0.25 µg/mL
same,MIC,[3]; E. faecium C1 VRE 26,0.25 µg/mL
same,MIC,[3]; E. faecium C1 VRE 27,0.25 µg/mL
same,MIC,[3]; E. faecium C1 VRE 28,0.125 µg/mL
same,MIC,[3]; E. faecium C1 VRE 31,0.5 µg/mL
same,MIC,[3]; E. faecium C1 VRE 33,0.125 µg/mL
same,MIC,[3]; E. faecium C1 VRE 34,0.25 µg/mL
same,MIC,[3]; E. faecium KEM VRE 1,0.25 µg/mL
same,MIC,[3]; E. faecium KEM VRE 2,0.5 µg/mL
same,MIC,[3]; E. faecium KEM VRE 3,0.25 µg/mL
same,MIC,[3]; E. faecium KEM VRE 4,0.5 µg/mL
same,MIC,[3]; E. faecium KEM VRE 5,0.25 µg/mL
same,MIC,[3]; E. faecium R-2 (VRE) (Table 4),0.25 µg/mL
same,Minimal Inhibitory Concentration,[3],0.125 µg/mL
same,MIC,"[3]; Enterococcus faecium, VSE (322)",0.125 µg/mL
same,MIC,[4],0.031 µg/mL
same,MIC,[5],0.125 µg/mL
same,MIC,[6],0.031 µg/mL
same,% reduction in RLU,[7]; 0.5 μg/mL,36.36%
same,% reduction in RLU,[7]; 5 μg/mL,77.17%
same,% reduction in RLU,[7]; 10 μg/mL,83.76%
same,Solubility,[8]; [11],Soluble
same,Solubility,[8]; in water,insoluble
C=C(NC(=O)c1csc(C2=NC3c4csc(n4)C4NC(=O)c5csc(n5)C(C(C)(O)C(C)O)NC(=O)C5CSC(=N5)/C(=C\C)NC(=O)C(C(C)O)NC(=O)c5csc(n5)C3(CC2)NC(=O)C(C)NC(=O)C(=C)NC(=O)C(C)NC(=O)C(C(C)C)NC2C=Cc3c(C(C)O)cc(nc3C2O)C(=O)OC4C)n1)C(=O)NC(C)C(N)=O (stereo not shown) [Compound of Formula I(b)],Minimal Inhibitory Concentration,[1]; [9],0.25 to 0.5 µg/mL
same,Minimal Inhibitory Concentration,[1]; [10],2 µg/mL
same,Minimal Inhibitory Concentration,[3],2 µg/mL
same,% reduction in RLU,[7]; 0.5 μg/mL,28.87%
same,% reduction in RLU,[7]; 5 μg/mL,54.83%
same,% reduction in RLU,[7]; 10 μg/mL,76.73%
same,Solubility,[8]; [11],Soluble
same,Solubility,[8]; in water,insoluble
